Values after ≈ are worked out from the molar mass of the structure shown. A value given as a limit tells only on which side of the number the result lay.

Here are results for ten molecules from ChEMBL document CHEMBL5360532, “Current scenario of quinolone hybrids with potential antibacterial activity against ESKAPE pathogens” (Eur J Med Chem, 2023).

What all share (format): functional
The test system of experiment [1] is Staphylococcus aureus. Nature of the experiment: Antibacterial activity against Staphylococcus aureus ATCC 25923 assessed as bacterial growth inhibition measured after 18 to 24 hrs by two fold microdilution assay. The settings on record: time 18-24 hrs. On the technique in general: Broth dilution looks for growth in wells or tubes with falling amounts of substance.

The test system of experiment [2] is Escherichia coli. Description: Antibacterial activity against Escherichia coli ATCC 35218 assessed as bacterial growth inhibition measured after 18 to 24 hrs by two fold microdilution assay. The settings on record: ATCC35218, time 18-24 hrs.
Experiment [3] deals with Klebsiella pneumoniae. Description: Antibacterial activity against Klebsiella pneumoniae assessed as bacterial growth inhibition measured after 18 to 24 hrs by two fold microdilution assay. The settings on record: time 18-24 hrs.
Experiment [4] deals with Pseudomonas aeruginosa. Description: Antibacterial activity against Pseudomonas aeruginosa ATCC 27853 assessed as bacterial growth inhibition by agar disc diffusion assay.
Experiment [5] concerns Staphylococcus aureus. Description: Antibacterial activity against Staphylococcus aureus clinical isolate 1 assessed as bacterial growth inhibition by agar disc diffusion assay. (In general: Agar diffusion results depend on both activity and mobility in agar.)
The test system of experiment [6] is Fusarium oxysporum f. sp. lycopersici. Nature of the experiment: Antifungal activity against Fusarium oxysporum f. sp. lycopersici assessed as fungal growth inhibition measured after 7 days by agar disc diffusion assay. The settings on record: 168 h, time 7 day.
Experiment [7] deals with Pseudomonas aeruginosa. Nature of the experiment: Antibacterial activity against Pseudomonas aeruginosa clinical isolate 1 assessed as bacterial growth inhibition by agar disc diffusion assay.
Experiment [8] has as its system Escherichia coli. Description: Antibacterial activity against Escherichia coli ATCC 25922 assessed as bacterial growth inhibition by agar disc diffusion assay.
The subject of another experiment is Alternaria. Description: Antifungal activity against Alternaria assessed as fungal growth inhibition measured after 7 days by agar disc diffusion assay. The settings on record: 168 h, time 7 day.
In experiment [9] the test system is Staphylococcus aureus. Nature of the experiment: Antibacterial activity against Staphylococcus aureus ATCC 25923 assessed as bacterial growth inhibition by agar disc diffusion assay.
Experiment [10] concerns Escherichia coli. Nature of the experiment: Antibacterial activity against Escherichia coli clinical isolate 1 assessed as bacterial growth inhibition by agar disc diffusion assay.
Experiment [11] relates to Escherichia coli. Description: Antibacterial activity against Escherichia coli ATCC 25922 assessed as bacterial growth inhibition by agar dilution assay.
Experiment [12] deals with Staphylococcus aureus. Description: Antibacterial activity against Staphylococcus aureus assessed as bacterial growth inhibition by agar dilution assay. For orientation: Agar dilution tests growth on a series of plates holding different concentrations.
Experiment [13] concerns Pseudomonas aeruginosa. Description: Antibacterial activity against Pseudomonas aeruginosa ATCC 27853 assessed as bacterial growth inhibition by agar dilution assay.
The next experiment has as its system Acinetobacter baumannii. Nature of the experiment: Antibacterial activity against Acinetobacter baumannii assessed as bacterial growth inhibition by agar dilution assay.
Experiment [14] relates to Staphylococcus aureus. Nature of the experiment: Antibacterial activity against methicillin resistant Staphylococcus aureus assessed as bacterial growth inhibition by agar dilution assay.
Experiment [15] relates to Klebsiella pneumoniae. Description: Antibacterial activity against Klebsiella pneumoniae assessed as bacterial growth inhibition by agar dilution assay.
In experiment [16] the test system is Staphylococcus aureus. Description: Antibacterial activity against Staphylococcus aureus ATCC 25923 assessed as bacterial growth inhibition by agar dilution assay.
Experiment [17] deals with Staphylococcus aureus. Nature of the experiment: Antibacterial activity against Staphylococcus aureus ATCC 29213 assessed as bacterial growth inhibition by agar dilution assay.
Experiment [18] has as its system Staphylococcus aureus. Nature of the experiment: Antibacterial activity against methicillin resistant Staphylococcus aureus assessed as bacterial growth inhibition measured after 24 hrs by serial dilution method.
The subject of experiment [19] is Escherichia coli. Nature of the experiment: Antibacterial activity against Escherichia coli assessed as bacterial growth inhibition measured after 24 hrs by serial dilution method.
In experiment [20] the test system is Escherichia coli. Nature of the experiment: Antibacterial activity against Escherichia coli assessed as zone of inhibition at 250 ug/ml by agar well diffusion assay. The settings on record: read-out: IZ.
Experiment [21] concerns Pseudomonas aeruginosa. Description: Antibacterial activity against Pseudomonas aeruginosa assessed as zone of inhibition at 250 ug/ml by agar well diffusion assay. The settings on record: read-out: IZ.
For experiment [22], the system named is Staphylococcus aureus. Nature of the experiment: Antibacterial activity against vancomycin-intermediate methicillin resistant Staphylococcus aureus ATCC 700788 assessed as bacterial growth inhibition measured after 16 to 18 hrs by serial dilution method. The settings on record: time 16-18 hrs.
The subject of experiment [23] is Staphylococcus aureus. Nature of the experiment: Antibacterial activity against Staphylococcus aureus assessed as zone of inhibition at 250 ug/ml by agar well diffusion assay. The settings on record: read-out: IZ.
In experiment [24] the test system is Klebsiella pneumoniae. Nature of the experiment: Antibacterial activity against Klebsiella pneumoniae assessed as zone of inhibition at 250 ug/ml by agar well diffusion assay. The settings on record: read-out: IZ.
In experiment [25] the test system is Staphylococcus aureus. Description: Antibacterial activity against Staphylococcus aureus ATCC 6538p assessed as bacterial growth inhibition by agar dilution method.
For the next experiment, the system named is Bacillus subtilis. Description: Antibacterial activity against Bacillus subtilis PTCC 1023 assessed as bacterial growth inhibition by agar dilution method.
Another experiment deals with Enterobacter cloacae. Description: Antibacterial activity against Enterobacter cloacae PTCC 1003 assessed as bacterial growth inhibition by agar dilution method.
Experiment [26] relates to Escherichia coli. Nature of the experiment: Antibacterial activity against Escherichia coli ATCC 8739 assessed as bacterial growth inhibition by agar dilution method.
Experiment [27] relates to Staphylococcus epidermidis. Nature of the experiment: Antibacterial activity against Staphylococcus epidermidis ATCC 12228 assessed as bacterial growth inhibition by agar dilution method.
Experiment [28] has as its system Klebsiella pneumoniae. Nature of the experiment: Antibacterial activity against Klebsiella pneumoniae ATCC 10031 assessed as bacterial growth inhibition by agar dilution method.
The test system of the next experiment is SiHa. Description: Growth inhibition of human SiHa cells measured after 48 hrs by SRB assay.
The test system of another experiment is MDA-MB-231. Description: Growth inhibition of human MDA-MB-231 cells measured after 48 hrs by SRB assay.
For experiment [29], the system named is Staphylococcus aureus. Nature of the experiment: Antibacterial activity against methicillin resistant Staphylococcus aureus ATCC 33591 assessed as bacterial growth inhibition measured after 16 to 18 hrs by serial dilution method. The settings on record: time 16-18 hrs.
Experiment [30] concerns Staphylococcus aureus. Description: Antibacterial activity against Staphylococcus aureus Newman assessed as bacterial growth inhibition measured after 16 to 18 hrs by serial dilution method. The settings on record: time 16-18 hrs.
Experiment [31] has as its system Staphylococcus aureus. Description: Antibacterial activity against clinical isolate linezolid/methicillin resistant Staphylococcus aureus NRS 271 assessed as bacterial growth inhibition measured after 16 to 18 hrs by serial dilution method. The settings on record: time 16-18 hrs.
The test system of experiment [32] is Staphylococcus aureus. Nature of the experiment: Antibacterial activity against clinical isolate aminoglycosides/tetracycline/methicillin resistant Staphylococcus aureus NRS 1 assessed as bacterial growth inhibition measured after 16 to 18 hrs by serial dilution method. The settings on record: time 16-18 hrs.
Experiment [33] has as its system Staphylococcus aureus. Nature of the experiment: Antibacterial activity against fluoroquinolone/methicillin resistant Staphylococcus aureus clinical isolate 19-27 assessed as bacterial growth inhibition measured after 16 to 18 hrs by serial dilution method. The settings on record: time 16-18 hrs.
In experiment [34] the test system is Staphylococcus aureus. Description: Antibacterial activity against clinical isolate erythromycin/methicillin resistant Staphylococcus aureus NRS 70 assessed as bacterial growth inhibition measured after 16 to 18 hrs by serial dilution method. The settings on record: time 16-18 hrs.
The subject of experiment [35] is Staphylococcus aureus. Nature of the experiment: Antibacterial activity against fluoroquinolone/methicillin resistant Staphylococcus aureus clinical isolate 19-26 assessed as bacterial growth inhibition measured after 16 to 18 hrs by serial dilution method. The settings on record: time 16-18 hrs.
Experiment [36] has as its system Staphylococcus aureus. Description: Antibacterial activity against clinical isolate gentamycin/methicillin resistant Staphylococcus aureus NRS 108 assessed as bacterial growth inhibition measured after 16 to 18 hrs by serial dilution method. The settings on record: time 16-18 hrs.
The test system of experiment [37] is Staphylococcus aureus. Description: Antibacterial activity against clinical isolate oxacillin/tetracycline/methicillin resistant Staphylococcus aureus NRS 100 assessed as bacterial growth inhibition measured after 16 to 18 hrs by serial dilution method. The settings on record: time 16-18 hrs.
Experiment [38] concerns Staphylococcus aureus. Nature of the experiment: Antibacterial activity against vancomycin-intermediate methicillin resistant Staphylococcus aureus ATCC 700699 assessed as bacterial growth inhibition measured after 16 to 18 hrs by serial dilution method. The settings on record: time 16-18 hrs.
Experiment [39] deals with Staphylococcus aureus. Description: Antibacterial activity against methicillin resistant Staphylococcus aureus ATCC 43300 assessed as bacterial growth inhibition measured after 16 to 18 hrs by serial dilution method. The settings on record: time 16-18 hrs.
The subject of experiment [40] is Staphylococcus aureus. Nature of the experiment: Antibacterial activity against fluoroquinolone/methicillin resistant Staphylococcus aureus clinical isolate 19-25 assessed as bacterial growth inhibition measured after 16 to 18 hrs by serial dilution method. The settings on record: time 16-18 hrs.

In the case of `CCn1cc(C(=O)O)c(=O)c2cc(F)c(N3CCN(Cn4nc(CN5CCN(c6ccc(F)cc6)CC5)n(-c5ccccc5)c4=O)CC3)cc21`, the minimal inhibitory concentration (MIC) in the experiment on Staphylococcus aureus [1], with Escherichia coli [2] and with Klebsiella pneumoniae [3] was < 0.24 µg/mL in each case.
In the case of `CCOP(=O)(OCC)C(NS(=O)(=O)Nc1ccccc1OC)c1cc2cccc(C)c2[nH]c1=O` (stereo not drawn), the MIC (in the experiment with Pseudomonas aeruginosa [4]; in the experiment with Staphylococcus aureus [5]; in [6]; in the experiment with Pseudomonas aeruginosa [7]; in the experiment with Escherichia coli [8]; with Alternaria) was 0.125 µg/mL (≈ 0.245 µM) throughout. Further, the MIC with Staphylococcus aureus [9] and with Escherichia coli [10] was 0.125 µg/mL (≈ 0.245 µM) throughout.
On to `CCOC(=O)c1cn(Cc2nc3ccccc3n2Cc2ccccc2F)c2cc(Cl)c(F)cc2c1=O`, for which the MIC in the experiment with Escherichia coli [11], in the experiment with Staphylococcus aureus [12], in the experiment with Pseudomonas aeruginosa [13], in the experiment on Acinetobacter baumannii, in the experiment on Staphylococcus aureus [14] and with Klebsiella pneumoniae [15] was 1 µg/mL (≈ 1.97 µM) throughout. Besides, the MIC in the experiment on Staphylococcus aureus [16] and in the experiment on Staphylococcus aureus [17] was 1 µg/mL (≈ 1.97 µM) each time.
As for `COc1c(N2CCCC(N(C)C(=O)c3cccnc3)C2)c(F)cc2c(=O)c(C(=O)O)cn(C3CC3)c12` (stereo not drawn), the MIC in the experiment on Staphylococcus aureus [18] and with Escherichia coli [19] was 0.078 µg/mL (≈ 0.158 µM) in each case.
As to `Cc1ncc([N+](=O)[O-])n1CC(C)OC(=O)c1cn(C2CC2)c2cc(N3CCNCC3)c(F)cc2c1=O` (stereo not drawn), the zone of inhibition at 250 µg/mL with Escherichia coli [20], in the experiment with Pseudomonas aeruginosa [21], in the experiment on Staphylococcus aureus [23] and in the experiment on Klebsiella pneumoniae [24] was 25 mm in each case. The MIC (usually the smallest concentration in the dilution series that meets the test's criterion for growth inhibition) with Staphylococcus aureus [22] is ≤ 0.17 µg/mL.
For the molecule `COc1cc(OC)nc(/N=N/N2CCN(c3cc4c(cc3F)c(=O)c(C(=O)C(C(C)=O)C(C)=O)cn4C3CC3)CC2)n1`, the minimal inhibitory concentration (MIC) (in the experiment on Staphylococcus aureus [25]; with Bacillus subtilis; in the experiment on Enterobacter cloacae; in the experiment with Escherichia coli [26]; in [27]; in the experiment on Klebsiella pneumoniae [28]) was 0.015 µg/mL (≈ 0.0259 µM) throughout.
`COC(=O)c1cn(C2CC2)c2cc(N3CCN(CC(=O)OC(C)Cn4c([N+](=O)[O-])cnc4C)CC3)c(F)cc2c1=O` (stereo not drawn): the zone of inhibition at 250 µg/mL in the experiment on Escherichia coli [20], in the experiment on Pseudomonas aeruginosa [21], with Staphylococcus aureus [23] and with Klebsiella pneumoniae [24] was 19 mm each time.
As to `COc1c(N2C[C@@H]3CCCN[C@@H]3C2)c(F)cc2c(=O)c(C(=O)O)cn(C3CC3)c12` [MOXIFLOXACIN], the MIC with Staphylococcus aureus [18] and with Escherichia coli [19] was 0.078 µg/mL (≈ 0.194 µM) each time.
As for `CC/C(=C(\c1ccccc1)c1ccc(OCCN(C)C)cc1)c1ccccc1` [TAMOXIFEN], the GI50 (in general, the concentration at which growth is held to half of that of the control) with SiHa turned out to be 120 nM; with MDA-MB-231, 240 nM.
`CN[C@H](CC(C)C)C(=O)N[C@H]1C(=O)N[C@@H](CC(N)=O)C(=O)N[C@H]2C(=O)N[C@H]3C(=O)N[C@H](C(=O)N[C@H](C(=O)O)c4cc(O)cc(O)c4-c4cc3ccc4O)[C@H](O)c3ccc(c(Cl)c3)Oc3cc2cc(c3O[C@@H]2O[C@H](CO)[C@@H](O)[C@H](O)[C@H]2O[C@H]2C[C@](C)(N)[C@H](O)[C@H](C)O2)Oc2ccc(cc2Cl)[C@H]1O` [VANCOMYCIN]: the minimal inhibitory concentration (MIC) in the experiment on Staphylococcus aureus [29], in the experiment with Staphylococcus aureus [30], in the experiment on Staphylococcus aureus [31], in the experiment with Staphylococcus aureus [32], in the experiment on Staphylococcus aureus [22] and with Staphylococcus aureus [33] was 0.78 µg/mL (≈ 0.538 µM) in each case. For the same molecule, the MIC in the experiment on Staphylococcus aureus [34], with Staphylococcus aureus [35], with Staphylococcus aureus [36], in the experiment on Staphylococcus aureus [37], in the experiment on Staphylococcus aureus [38] and in the experiment with Staphylococcus aureus [39] was 0.78 µg/mL (≈ 0.538 µM) in each case. Further, the MIC in the experiment on Staphylococcus aureus [40] is 0.78 µg/mL (≈ 0.538 µM).
